Read-outs that look alike come from different tables or passages of the source.
Key:
HIV-1 (H9/IIIB strain) = experiment: Multiple round HIV-1 infection assay (Viking assay) in MT4-GFP cells; format: cell-based; details: MT4-GFP cells infected with HIV-1 H9/IIIB, inhibition of reproductive ratio R0
Description: Assessing Antiviral Potency in a Multiple Round HIV-1 Infection Assay (Viking Assay)
The antiviral activity of the tenofovir prodrugs of the Examples herein was assessed in an assay that measures the rate of replication of HIV in cell culture, termed the Viking assay (Viral KINetics in Green cells) and performed as follows. HIV-1 replication was monitored using MT4-gag-GFP clone D3 (hereafter designated MT4-GFP), which are MT-4 cells modified to harbor a GFP reporter gene, the expression of which is dependent on the HIV-1 expressed proteins tat and rev. Productive infection of an MT4-GFP cell with HIV-1 results in GFP expression approximately 24 h post-infection. MT4-GFP cells were maintained at 37° C./5% CO2/90% relative humidity in RPMI 1640 supplemented with 10% fetal bovine serum, 100 μ/ml penicillin/streptomycin, and 400 μg/ml G418 to maintain the reporter gene. For infections, MT4-GFP cells were placed in the same medium lacking G418 and infected overnight with HIV-1 (H9/IIIB strain) virus at an approximate multiplicity of infection of 0.01 in the same incubation conditions. Cells were then washed and re-suspended in either RPMI 1640 supplemented with 10% or 50% normal human serum (NFIS) at 1.6×10^5 cells/mL (10% NHS or 50% NHS, respectively). Compound plates were prepared by dispensing compounds dissolved in DMSO into wells of 384 well poly-D -lysine-coated plates (0.2 μl/well) using an ECHO acoustic dispenser. Each compound was tested in a 10-point serial 3-fold dilution (typical final concentrations: 8.4 μM-0.42 nM). Controls included no inhibitor (DMSO only) and a combination of three antiviral agents (efavirenz, indinavir, an in-house integrase strand transfer inhibitor at final concentrations of 4 μM each). Cells were added (50 μL/well) to compound plates and the infected cells were maintained at 37° C./5% CO2/90% relative humidity.
infected cells were quantified at two time points, ˜48 h and ˜72 h post -infection, by counting the number of green cells in each well using an Acumen eX3 scanner. The increase in the number of green cells over ˜24 h period gives the reproductive ratio, R0, which is typically 5-15 and has been shown experimentally to be in logarithmic phase (data not shown). Inhibition of R0 is calculated for each well, and IC50s determined by non-linear 4-parameter curve fitting.

[1] = Prodrug stability assay in bio-relevant media (FaSSIF with Pancreatin, simulated gastrointestinal tract conditions); format: in vitro ADME; details: % parent prodrug remaining at 5 h vs 0 h, 37° C., 0.5 mg/mL Pancreatin in FaSSIF, HPLC area ratio
Description: Prodrug Stability Assay in Bio-Relevant Media
The following assay was employed to evaluate the stability of the prodrugs in simulated gastrointestinal tract conditions. Preparation of fasted state simulated intestinal fluid (FaSSIF) using Phares SIF Powder was carried out according to protocols from Phare Drug Delivery AG (Baselland, Switzerland). For sample preparation, 10 μL stock solutions (10 mM) of prodrug substance in DMSO was added to 990 μL of 0.5 mg/mL Pancreatin solution (Fisher CAS#8049-47-6) in FaSSIF. Two samples were prepared for each compound at initial. If the sample was clear solution at the beginning, ran one sample directly as initial by HPLC; if the sample was not clear at starting, diluted the sample by 100% ACN. Put the other sample under 37° C. and observed the sample at 5 h time-point. At 5 h time point, if the sample was clear solution then performed HPLC analysis directly; if it was not clear solution, diluted the sample by 100% ACN and assayed by HPLC. All the samples were vortexed for 3 min and observed before injection. For the diluted samples, the area will be multiplied by a factor when data analysis. The analysis was carried out with an Agilent 1100 series HPLC with autosampler. The column was usually a Poroshell 120 EC -C18, 4.6×50 mm, 2.7 μm. The flow rate was 1.8 mL/min, and the injection volume was 5 or 10 μL. UV detection was in the range 210-400 nm. The mobile phase consisted of solvent A (water plus 10 mM tetrabutylammonium bromide) and solvent B (acetonitrile) with a gradient of 90% solvent A at 0 min changing to 95% solvent B over 6 min, maintained for 1.5 min, then reverting to 90% solvent A over 1.6 min. The area of the parent in prodrug at 5h time point was divided by the area of the parent in prodrug at 0 h time point, to generate the % claimed parent ratio, which are summarized in Table 2 for GI Tract stability.

[2] = 10% normal human serum, read-out: Viking, IC50 (10% NHS)
[3] = 50% normal human serum, read-out: Viking, IC50 (50% NHS)
[4] = Human immunodeficiency virus 1, IIIB, 10% normal human serum, read-out: Viking, IC50 (10% NHS)
[5] = Human immunodeficiency virus 1, IIIB, 50% normal human serum, read-out: Viking, IC50 (50% NHS)

Structure (SMILES) | IC50 (HIV-1 (H9/IIIB strain); [2]) | IC50 (HIV-1 (H9/IIIB strain); [3]) | GI Tract stability [1] | IC50 (HIV-1 (H9/IIIB strain); [4]) | IC50 (HIV-1 (H9/IIIB strain); [5])
CC(C)OC(=O)[C@H](C)OP(=O)(CO[C@H](C)Cn1cnc2c(N)ncnc21)NC(C)(C)C(=O)OC1CCCC1 (single isomer, unassigned) [Example 18B] | 2.69 nM | 8.77 nM | 91.31% | – | –
CCCCCOC(=O)C(C)(C)NP(=O)(CO[C@H](C)Cn1cnc2c(N)ncnc21)O[C@@H](C)C(=O)OC1CCCC1 (single isomer, unassigned) [Example 19B] | 3.01 nM | 9.93 nM | 100.00% | – | –
CC(C)OC(=O)[C@@H](C)OP(=O)(CO[C@H](C)Cn1cnc2c(N)ncnc21)NC(C)(C)C(=O)OC(C)C (stereo partly drawn) [Example 20, Isopropyl 2-((((((R)-1-(6-amino-9H-purin-9-yl)propan-2-yl)oxy)methyl)(((R)-1-isopropoxy-1-oxopropan-2-yl)oxy)phosphoryl)amino)-2-methylpropanoate] | – | – | 7.19% | 21 nM | 97 nM
CCCOC(=O)C(C)(C)NP(=O)(CO[C@H](C)Cn1cnc2c(N)ncnc21)OCC(=O)OC(C)C (stereo partly drawn) [Example 21, Propyl 2-((((((R)-1-(6-amino-9H-purin-9-yl)propan-2-yl)oxy)methyl)(2-isopropoxy-2-oxoethoxy)phosphoryl)amino)-2-methylpropanoate] | – | – | 99.36% | 6.15 nM | 12 nM
CCCOC(=O)C(C)(C)NP(=O)(CO[C@H](C)Cn1cnc2c(N)ncnc21)O[C@@H](C)C(=O)OC(C)C (stereo partly drawn) [Example 22, Propyl 2-((((((R)-1-(6-amino-9H-purin-9-yl)propan-2-yl)oxy)methyl)(((S)-1-isopropoxy-1-oxopropan-2-yl)oxy)phosphoryl)amino)-2-methylpropanoate] | – | – | 79.24% | 4.65 nM | 17.7 nM
CCCOC(=O)C(C)(C)NP(=O)(CO[C@H](C)Cn1cnc2c(N)ncnc21)O[C@H](C)C(=O)OC(C)C (stereo partly drawn) [Example 23, Propyl 2-((((((R)-1-(6-amino-9H-purin-9-yl)propan-2-yl)oxy)methyl)(((R)-1-isopropoxy-1-oxopropan-2-yl)oxy)phosphoryl)amino)-2-methylpropanoate] | – | – | 4.28% | 2.67 nM | 8.19 nM
CCCCOC(=O)C(C)(C)NP(=O)(CO[C@H](C)Cn1cnc2c(N)ncnc21)OCC(=O)OC(C)C (stereo partly drawn) [Example 24, Butyl 2-((((((R)-1-(6-amino-9H-purin-9-yl)propan-2-yl)oxy)methyl)(2-isopropoxy-2-oxoethoxy)phosphoryl)amino)-2-methylpropanoate] | – | – | 98.30% | 4.78 nM | 27.8 nM
CCCCOC(=O)C(C)(C)NP(=O)(CO[C@H](C)Cn1cnc2c(N)ncnc21)O[C@@H](C)C(=O)OC(C)C (stereo partly drawn) [Example 25, Butyl 2-((((((R)-1-(6-amino-9H-purin-9-yl)propan-2-yl)oxy)methyl)(((S)-1-isopropoxy-1-oxopropan-2-yl)oxy)phosphoryl)amino)-2-methylpropanoate] | – | – | 79.61% | 2.44 nM | 10.5 nM
CCCCOC(=O)C(C)(C)NP(=O)(CO[C@H](C)Cn1cnc2c(N)ncnc21)O[C@H](C)C(=O)OC(C)C (stereo partly drawn) [Example 26, Butyl 2-((((((R)-1-(6-amino-9H-purin-9-yl)propan-2-yl)oxy)methyl)(((R)-1-isopropoxy-1-oxopropan-2-yl)oxy)phosphoryl)amino)-2-methylpropanoate] | – | – | 9.01% | 3.1 nM | 8.74 nM
CC(C)COC(=O)C(C)(C)NP(=O)(CO[C@H](C)Cn1cnc2c(N)ncnc21)O[C@@H](C)C(=O)OC(C)C (stereo partly drawn) [Example 31, Isobutyl 2-((((((R)-1-(6-amino-9H-purin-9-yl)propan-2-yl)oxy)methyl)(((S)-1-isopropoxy-1-oxopropan-2-yl)oxy)phosphoryl)amino)-2-methylpropanoate] | – | – | 85.48% | 2.39 nM | 7.57 nM
CCCCCCOC(=O)C(C)(C)NP(=O)(CO[C@H](C)Cn1cnc2c(N)ncnc21)O[C@@H](Cc1ccccc1)C(=O)OC(C)C (stereo partly drawn) [Example 33, Hexyl 2-((((((R)-1-(6-amino-9H-purin-9-yl)propan-2-yl)oxy)methyl)(((S)-1-isopropoxy-1-oxo-3-phenylpropan-2-yl)oxy)phosphoryl)amino)-2-methylpropanoate] | – | – | 26.96% | 1.69 nM | 5.06 nM
CCCCCOC(=O)C(C)(C)NP(=O)(CO[C@H](C)Cn1cnc2c(N)ncnc21)OCC(=O)OC1CCCC1 (stereo partly drawn) [Example 36, Pentyl 2-((((((R)-1-(6-amino-9H-purin-9-yl)propan-2-yl)oxy)methyl)(2-(cyclopentyloxy)-2-oxoethoxy)phosphoryl)amino)-2-methylpropanoate] | – | – | 88.87% | 2.39 nM | 6.04 nM
CCCOC(=O)C(C)(C)NP(=O)(CO[C@H](C)Cn1cnc2c(N)ncnc21)OCC(=O)OC1CCCC1 (stereo partly drawn) [Example 38, Propyl 2-((((((R)-1-(6-amino-9H-purin-9-yl)propan-2-yl)oxy)methyl)(2-(cyclopentyloxy)-2-oxoethoxy)phosphoryl)amino)-2-methylpropanoate] | – | – | 96.64% | 2.68 nM | 6.26 nM
CC(C)OC(=O)[C@H](C)OP(=O)(CO[C@H](C)Cn1cnc2c(N)ncnc21)NC(C)(C)C(=O)OCc1ccccc1 (stereo partly drawn) [Example 41, Benzyl 2-((((((R)-1-(6-amino-9H-purin-9-yl)propan-2-yl)oxy)methyl)(((S)-1-isopropoxy-1-oxopropan-2-yl)oxy)phosphoryl)amino)-2-methylpropanoate] | – | – | 58.50% | 2.87 nM | 12.5 nM
CC(C)OC(=O)COP(=O)(CO[C@H](C)Cn1cnc2c(N)ncnc21)NC1(C(=O)OC(C)C)CCCC1 (stereo partly drawn) [Example 45, Isopropyl 1-((((((R)-1-(6-amino-9H-purin-9-yl)propan-2-yl)oxy)methyl)(2-isopropoxy-2-oxoethoxy)phosphoryl)amino) cyclopentane-1-carboxylate] | – | – | 99.44% | 15.6 nM | 62.6 nM
CC(C)OC(=O)COP(=O)(CO[C@H](C)Cn1cnc2c(N)ncnc21)NC1(C(=O)OC(C)C)CC1 (stereo partly drawn) [Example 46, Isopropyl 1-((((((R)-1-(6-amino-9H-purin-9-yl)propan-2-yl)oxy)methyl)(2-isopropoxy-2-oxoethoxy)phosphoryl)amino) cyclopropane-1-carboxylate] | – | – | 98.18% | 386 nM | 703 nM

Source: patent US10449208B2, “Antiviral prodrugs of tenofovir” (Merck Sharp & Dohme Corp., priority 2016, dated 2019)
